# According to patent publication US20180256623A1, “COMPOSITIONS AND METHOD FOR REGULATING ADIPOSE TISSUE LIPOLYSIS, INSULIN-RESISTANCE, AND HYPERGLYCEMIA” (University of Virginia Patent Foundation, priority 2015, published 2018):
# Tests used:
# monoglyceride lipase = target: T1, monoglyceride lipase (Homo sapiens, UniProt Q99685); conditions: cited from earlier work
# T1 sequence (Q99685 1-303): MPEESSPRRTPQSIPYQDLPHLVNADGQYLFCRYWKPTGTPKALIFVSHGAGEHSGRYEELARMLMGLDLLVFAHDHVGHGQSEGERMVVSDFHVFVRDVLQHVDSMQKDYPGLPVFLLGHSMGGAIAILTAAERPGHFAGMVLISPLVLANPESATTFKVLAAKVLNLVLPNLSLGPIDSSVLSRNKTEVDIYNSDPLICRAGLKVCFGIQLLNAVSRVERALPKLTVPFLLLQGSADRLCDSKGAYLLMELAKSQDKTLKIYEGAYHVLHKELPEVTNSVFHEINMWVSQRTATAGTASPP
# STZ mice = test: Hemorrhage and resuscitation protocol with Pseudomonas aeruginosa respiratory infection in STZ mice; format: in vivo; conditions: in response to Atglistatin treatment
# Description: How preventing hyperglycemia can aid recovery and improve survival will be investigated. STZ mice will be subjected to hemorrhage protocol described above, but then resuscitated by fluid replacement to perform a survival surgery. The metabolic status will be followed for up to three days and indices of wound repair and susceptibility to postoperative pneumonia was monitored (FIG. 1). Control and T1DM mice, treated with Atglistatin to inhibit lipolysis or vehicle, will be subjected to the hemorrhage and resuscitation protocol. The ability of Atglistatin to improve survival under baseline conditions, as well as improve wound healing and recovery, will be determined. In addition, it will be determined whether attenuating postoperative hyperglycemia via Atglistatin administration improves survival from postoperative pseudomonal pneumonia and/or improve indices of pneumonia. […] Animals will be monitored for several hours after surgery taking hourly blood glucose measurements. […] Lung injury will be assessed by albumin ELISA in the bronchoalveolar lavage (BAL) fluid. Bacterial counts will be performed in the lung and blood, flow cytometric analysis of BAL cells will be done to assess for leukocyte infiltration and function, and BAL fluid as well as serum will be analyzed for inflammatory cytokine release. […]
# PNPLA7 = PNPLA7 (Homo sapiens, UniProt Q6ZV29); conditions: cited from earlier work
# PNPLA7, sequence (Q6ZV29 whole entry, species assumed): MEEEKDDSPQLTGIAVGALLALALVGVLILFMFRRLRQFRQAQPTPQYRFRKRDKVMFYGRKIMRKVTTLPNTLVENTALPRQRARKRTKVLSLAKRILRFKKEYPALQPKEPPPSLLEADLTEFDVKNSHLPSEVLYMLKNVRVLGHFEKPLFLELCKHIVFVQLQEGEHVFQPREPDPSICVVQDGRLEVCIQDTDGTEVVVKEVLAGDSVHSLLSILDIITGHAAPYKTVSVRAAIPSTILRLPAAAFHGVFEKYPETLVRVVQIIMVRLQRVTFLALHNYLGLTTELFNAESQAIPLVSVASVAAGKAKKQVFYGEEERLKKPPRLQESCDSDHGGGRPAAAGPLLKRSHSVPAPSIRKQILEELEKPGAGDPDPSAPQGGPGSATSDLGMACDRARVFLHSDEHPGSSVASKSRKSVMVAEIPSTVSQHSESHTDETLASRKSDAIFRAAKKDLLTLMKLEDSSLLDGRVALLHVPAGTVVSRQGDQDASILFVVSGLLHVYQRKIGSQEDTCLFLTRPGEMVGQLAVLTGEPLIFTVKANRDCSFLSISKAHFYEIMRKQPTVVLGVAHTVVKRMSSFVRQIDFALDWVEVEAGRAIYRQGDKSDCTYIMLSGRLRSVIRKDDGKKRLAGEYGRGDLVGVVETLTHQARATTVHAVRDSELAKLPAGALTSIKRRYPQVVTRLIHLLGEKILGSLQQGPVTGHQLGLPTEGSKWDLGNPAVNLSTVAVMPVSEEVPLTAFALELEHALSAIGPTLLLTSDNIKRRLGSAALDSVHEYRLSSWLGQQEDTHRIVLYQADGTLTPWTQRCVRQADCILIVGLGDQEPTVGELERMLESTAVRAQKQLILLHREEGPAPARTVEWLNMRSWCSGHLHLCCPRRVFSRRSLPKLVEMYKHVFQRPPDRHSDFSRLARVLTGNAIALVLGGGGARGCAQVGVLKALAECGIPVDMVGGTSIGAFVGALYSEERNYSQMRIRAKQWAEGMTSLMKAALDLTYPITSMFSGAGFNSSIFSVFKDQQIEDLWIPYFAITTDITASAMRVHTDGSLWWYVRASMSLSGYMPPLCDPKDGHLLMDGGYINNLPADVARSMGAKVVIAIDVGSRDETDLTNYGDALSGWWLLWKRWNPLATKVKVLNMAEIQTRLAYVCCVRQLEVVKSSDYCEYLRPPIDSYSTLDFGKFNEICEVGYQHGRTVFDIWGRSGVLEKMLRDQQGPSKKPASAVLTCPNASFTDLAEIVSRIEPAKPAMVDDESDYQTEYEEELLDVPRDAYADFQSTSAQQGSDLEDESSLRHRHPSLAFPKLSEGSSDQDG
smiles,measurement,setting,value
"CN(C)C(=O)Nc1cccc(-c2ccc(N(C)C)cc2)c1 [Atglistatin, N′-[4′-(dimethylamino) [1,1′-biphenyl]-3-yl]-N,N-dimethyl-urea]",inhibition of monoglyceride lipase,monoglyceride lipase,does not inhibit
same,immune cell function,STZ mice,restored to levels comparable with normoglycemic mice
same,inhibition of PNPLA7,PNPLA7,does not inhibit
